Reference: US20220040169A1, “Methods for the Administration of Certain VMAT2 Inhibitors” (Neurocrine Biosciences, Inc., priority 2019, published 2022)

Legend:
Solubility in water = format: physicochemical
Description: INGREZZA contains valbenazine, present as valbenazine ditosylate salt, with the chemical name, L-Valine, (2R,3R,11bR)-1,3,4,6,7,11b-hexahydro-9,10-dimethoxy-3-(2-methylpropyl)-2H-benzo[a]quinolizin-2-yl ester, 4-methylbenzenesulfonate (1:2). […] Its molecular formula is C38H54N2O10S2, and its molecular weight is 762.97/mol (ditosylate salt) with the following structure: […]

[1] = Phase 2 and 3 controlled studies and long-term treatment in adults with tardive dyskinesia: Parkinson-like adverse events; format: in vivo, human
Description: In the Phase 2 and 3 controlled studies in adults with tardive dyskinesia (treatment up to 6 weeks), the incidence of Parkinson-like adverse events (AEs) was 3% (vs. <1% for placebo) and 4% during long-term treatment with valbenazine (up to 48 weeks).

solubility in water (Solubility in water) | Compound | serious Parkinson-like AEs ([1]; NBI clinical studies in tardive dyskinesia patients) | incidence of Parkinson-like adverse events (AEs) ([1]; Phase 2 and 3 controlled studies, adults with tardive dyskinesia, treatment up to 6 weeks, placebo <1%) [%] | incidence of Parkinson-like adverse events (AEs) during long-term treatment ([1]; long-term treatment up to 48 weeks) [%]
slightly soluble | COc1cc2c(cc1OC)[C@H]1C[C@@H](OC(=O)[C@@H](N)C(C)C)[C@H](CC(C)C)CN1CC2 [Valbenazine ditosylate, L-Valine, (2R,3R,11bR)-1,3,4,6,7,11b-hexahydro-9,10-dimethoxy-3-(2-methylpropyl)-2H-benzo[a]quinolizin-2-yl ester, 4-methylbenzenesulfonate (1:2)] |  |  | 
 | COc1cc2c(cc1OC)[C@H]1C[C@@H](OC(=O)[C@@H](N)C(C)C)[C@H](CC(C)C)CN1CC2 [valbenazine, (S)-2-amino-3-methyl-butyric acid (2R, 3R,11bR)-3-isobutyl-9,10-dimethoxy-1,3,4,6,7,11b-hexahydro-2H-pyrido[2,1-a]isoquinolin-2-yl ester] | No serious Parkinson-like AEs were reported | 3 | 4
